Columns and labels:
[1] = test system: Human lung adenocarcinoma A549 tumor; test: A549 lung adenocarcinoma tumor growth in nude mice; assay type: in vivo; conditions: NT 6 mg/kg i.p. daily alone, fourteen daily injections; vs control group
Description: Human lung adenocarcinoma A549 tumor cells (ATCC accession number CCL-185) at exponential growth were subcutaneously inoculated into 6-8 week-old nude mice (Vital River Laboratory Animal Technology Co., Ltd). When the tumor volume reached 100 mm^3, the tumor bearing nude mice were separated into four groups: (1) negative control, treatment with saline; (2) NT group, treatment with NT (6 mg/kg, intraperitoneal injection, daily), without ES treatment; (3) ES group, treatment with ES (12 mg/kg, intraperitoneal injection, daily), without NT treatment; (4) NT plus ES group, combined treatment with NT (6 mg/kg, intraperitoneal injection, daily) and ES (12 mg/kg, intraperitoneal injection, daily). After fourteen daily injections, mice were sacrificed, and the weight and volume of the tumors were measured.

p38 MAPK pathway = test: p38 MAPK signaling pathway activation in endothelial cells (Western Blotting); assay type: cell-based; conditions: NT 50 μg/mL 20 min and/or ES 5 μg/mL 30 min; vs negative control
Description: (§1) In this example, endothelial cells were separated into four groups: (1) negative control group, neither NT treatment, nor ES treatment; (2) NT group, treatment with NT at 50 μg/mL for 20 min, without ES treatment; (3) ES group, treatment with ES at 5 μg/mL for 30 min, without NT treatment; (4) NT plus ES group, treatment with NT at 50 μg/mL for 20 min, followed by treatment with ES at 5 μg/mL for 30 min. After treatment with the same method as described in Example 1, cells were collected and the ERK and p38 MAPK pathways were examined.

[2] = test system: Mouse lymphatic endothelial cells (mLEC); test: ES internalization in lymphatic endothelial cells (Western Blotting); assay type: cell-based; conditions: then ES 2 μg/mL 15 min
Source text: (§2) Human microvascular endothelial cells (HMECs) were from ATCC (accession number CRL 10636). Mouse lymphatic endothelial cells (mLEC) were isolated via digesting peritoneal lymphoma induced by incomplete Freund's adjuvant injection (Zhuo W. et al, Journal of Pathology; 222:249-260). Endu was obtained from Simcere-Medgenn Bio-pharmaceutical Co., Ltd. Endu is a recombinant ES containing an additional amino acid sequence (M)GGSHHHHH (SEQ ID NO:5) at N-terminal, the sequence of which is SEQ ID NO.3 or SEQ ID NO.4 because the first amino acid residue M will be randomly deleted when expressed in E. Coli. ES was obtained from Protgen Ltd., the amino acid sequence of which is SEQ ID NO.1 or SEQ ID NO.2 because the first amino acid residue M will be randomly deleted when expressed in E. Coli. Monomethoxy PEG propionaldehyde (mPEG-ALD) with an average molecular weight of 20 kDa (Jenkem Technology CO., Ltd.,) was used as the PEG reagent for specifically modifying the α-amino group at N-terminal of a protein. PEG-ES and PEG-Endu were prepared by Protgen Ltd. according to the instructions provided in the PEG reagent kit. Monoclonal antibody against ES was purchased from Oncogene Science, Inc. NT and other reagents were purchased from Sigma-Aldrich Co.
The mLECs were pre-treated with DMEM (Hyclone) containing 0, 75, 150, or 300 μg/mL NT in a 5% CO2 atmosphere at 37° C. for 20 min. The cells were then incubated with culture media containing ES (final concentration of 2 μg/mL) in a 5% CO2 atmosphere at 37° C. for 15 min. After treatment, the cells were washed with PBS for 3 times, and then collected. The ES internalization in cells treated with NT at various concentrations was examined by Western Blotting.

[3] = test system: Human microvascular endothelial cells (HMECs); test: Internalization of ES and its derivatives in blood vessel endothelial cells (Western Blotting); assay type: cell-based; conditions: for increase of ES internalization: then ES 5 μg/mL 30 min, vs cells without NT; for effect on ES internalization in endothelial cells: tested in place of NT: AMB 25-50 μg/mL, methyl-β-cyclodextrin 1-2 mM, filipin 2.5-5 μg/mL
Source text: as §2, with “Endu was obtained from Simcere-Medgenn Bio-pharmaceutical Co., Ltd. Endu is a recombinant ES containing an additional amino acid sequence (M)GGSHHHHH” left out
The endothelial cells were cultured to reach 90% confluence, and then pre-treated with DMEM medium (Hyclone) containing NT as follows. NT stock solution was added to the medium to a final concentration of 0 μg/mL, 25 μg/mL, or 50 μg/mL, and the culture was then incubated in a 5% CO2 atmosphere at 37° C. for 20 min for NT pre-treatment. After pre-treatment, ES stock solution (5 mg/ml) was added to the medium to a final concentration of 5 μg/mL. The culture was then incubated in a 5% CO2 atmosphere at 37° C. for 30 min to allow the internalization of ES by the endothelial cells. After removing the medium, the endothelial cells were washed with ice-cold PBS for 3 times and then collected. The ES internalization in whole cell lysate, cytosolic fraction, and nuclear fraction was examined by Western Blotting, compared with the cells without NT treatment.
Some other agents which share the same action mechanism as NT were also tested in place of in this example, such as AMB (25-50 μg/mL), methyl-β-cyclodextrin (1-2 mM), and filipin (2.5-5 μg/mL).
Other therapeutic agents which share the same action mechanism as ES can also be used in this example, such as PEG-modified ES. For this purpose, ES was modified with monomethoxy PEG propionaldehyde (mPEG-ALD) of 20 kDa which specifically modifies the N-terminal of a protein, and the product (PEG-ES) was an ES protein conjugated with one PEG molecule at the N-terminal α-amino group of ES.

[4] = test system: tumor blood vessel endothelial cells (CD31) in A549 tumors; test: Tumor blood vessel formation assay (CD31 immunofluorescence), A549 mice; assay type: in vivo, nude mice; conditions: NT 6 mg/kg plus ES 12 mg/kg vs ES alone, CD31 blood vessel area
Source text: Tumor blood vessel formation assay: Tumors from A549 mice were resected, fixed and sectioned. Samples were detected with primary antibody against CD31 (the marker of tumor blood vessel endothelial cells) and FITC-labeled secondary antibody (Santa Cruz), and then observed with Nikon A1 laser scanning confocal microscope (LSCM). The sectional areas of blood vessels in randomly selected fields (400×) were quantified and averaged with the software of the LSCM system.

[5] = test system: EGFR-expressing A549 cells; test: EGFR monoclonal antibody (Cetuximab) internalization in tumor cells (Western Blotting); assay type: cell-based, human; conditions: NT 25 or 50 μg/mL pre-treatment 20 min, then Cetuximab 5 μg/mL 30 min; positively correlated to NT concentrations
Description: EGFR-expressing A549 cells at exponential growth were cultured to reach 90% confluence and then pre-treated with DMEM medium containing NT as follows. NT stock solution was added to the medium to a final concentration of […], 25 μg/mL, or 50 μg/mL, and the culture was then incubated in a 5% CO2 atmosphere at 37° C. for 20 min for NT pre-treatment. After pre-treatment, EGFR monoclonal antibody (Cetuximab, Merck) stock solution (5 mg/ml) was added to the medium to a final concentration of 5 μg/mL. The culture was then incubated in a 5% CO2 atmosphere at 37° C. for 30 min to allow the internalization of EGFR monoclonal antibody by the […]. After treatment, the medium was removed, and the endothelial cells were washed with ice-cold PBS for 3 times and then collected. The EGFR monoclonal antibody internalization in cells was examined by Western Blotting, compared with EGFR monoclonal antibody internalization in cells without NT treatment.

ERK pathway = test: ERK signaling pathway activation in endothelial cells (Western Blotting); assay type: cell-based; conditions: NT 50 μg/mL 20 min and/or ES 5 μg/mL 30 min; vs negative control
Description: as §1

HMEC = test: Transwell cell migration assay; assay type: cell-based, human; conditions: NT 50 μg/mL alone; 10 ng/mL VEGF, 6 hours; vs negative control
Description: Cell migration assay: HMEC (2×10^4 cells per well) were seeded into DMEM (Hyclone) containing 0.5% FBS (Hyclone) and 10 ng/mL VEGF (PeproTech) on the upper layer of Transwell chambers (8 μm pores, Costar). ES (40 μg/mL) or NT (50 μg/mL) was added into both the upper and lower layers, and then the chambers were incubated in a 5% CO2 atmosphere at 37° C. for 6 hours to allow cell migration. […] The numbers of the cells migrated into the lower layer were counted and mean values were calculated. Experiments were performed in triplicate and each experiment was repeated twice.
In this example, endothelial cells were separated into four groups: (1) negative control group, neither NT treatment, nor ES treatment; (2) NT group, treatment with NT at 50 μg/mL, without ES treatment; (3) ES group, treatment with ES at 40 μg/mL, without NT treatment; (4) NT plus ES group, combined treatment with NT at 50 μg/mL and ES at 40 μg/mL. […] ES treatment (ES group) inhibited the transwell migration of endothelial cells by 61%.

H22 liver cancer = H22 liver cancer mouse model; assay type: in vivo
[6] = NT treatment, same dosage and treatment time, positively correlated to NT concentration

C[C@@H]1[C@H](O)[C@@H](C)/C=C/C=C/CC/C=C/C=C/C=C/C=C/C(O[C@H]2O[C@H](C)[C@@H](O)[C@H](N)[C@@H]2O)CC2O[C@](O)(CC(O)C(O)CCC(O)CC(O)CC(O)CC(=O)O[C@H]1C)CC(O)C2C(=O)O (stereo partly shown) [NT, Nystatin]
effect on tumor growth (in words) [1]: did not influence tumor growth
effect on activation of p38 MAPK pathway (p38 MAPK pathway): did not influence
increase of ES internalization in mLECs ([2]; NT 75 μg/mL pre-treatment 20 min): 16 fold
increase of ES internalization in mLECs ([2]; NT 150 μg/mL pre-treatment 20 min): 32 fold
increase of ES internalization in mLECs ([2]; NT 300 μg/mL pre-treatment 20 min): 78 fold
increase of ES internalization ([3]; NT 25 μg/mL pre-treatment 20 min): about 2 folds
increase of ES internalization ([3]; NT 50 μg/mL pre-treatment 20 min): ~15 folds
effect on PEG-ES internalization in blood vessel endothelial cells ([3]; NT treatment, same PEG-ES dosage and treatment time, positively correlated to NT concentration): increased
effect on Endu internalization in endothelial cells [3, 6]: increased
effect on PEG-Endu internalization in endothelial cells [3, 6]: increased
effect on inhibitory efficacy of ES on tumor blood vessel formation [4]: potentiated
effect on Cetuximab internalization in the cells [5]: significantly increased
effect on activation of ERK pathway (ERK pathway): did not influence
effect on transwell migration of endothelial cells (in words) (HMEC): did not substantially influence
effect on antiangiogenesis activity of ES (H22 liver cancer; tumor blood vessel area): enhancement effect
effect on antitumor activity of ES (H22 liver cancer; tumor weight): enhancement effect

methyl-β-cyclodextrin
effect on ES internalization in endothelial cells [3]: can increase ES internalization

CCCCC[C@@H](O)[C@H]1C(=O)O[C@H](C)[C@@H](O)/C=C/C=C/C=C/C=C/C=C(\C)[C@@H](O)C[C@H](O)C[C@H](O)C[C@H](O)C[C@H](O)C[C@H](O)C[C@@H]1O [filipin]
effect on ES internalization in endothelial cells [3]: can increase ES internalization

C[C@@H]1[C@H](O)[C@@H](C)/C=C/C=C/C=C/C=C/C=C/C=C/C=C/[C@H](O[C@@H]2O[C@H](C)[C@@H](O)[C@H](N)[C@@H]2O)C[C@@H]2O[C@](O)(C[C@@H](O)C[C@@H](O)[C@H](O)CC[C@@H](O)C[C@@H](O)CC(=O)O[C@H]1C)C[C@H](O)[C@H]2C(=O)O [AMB, Amphotericin B]
effect on ES internalization in endothelial cells [3]: can increase ES internalization
